Laboratory results as given in patent US6476019B1, “Spirocyclic ligands for sigma receptors, and libraries and methods of use thereof” (Sepracor Inc., priority 1999, dated 2002).
Read-outs that look alike come from different tables or passages of the source.

Legend:
[1] = target: T1, sigma-1 receptor (guinea pig brain) (Cavia porcellus, UniProt Q60492); assay: Antagonism of haloperidol binding to guinea pig sigma-1 receptors; settings: sigma-1, guinea pig brain; for % Inhibition: test concentration not given
T1 construct: from tissue; host or cells: guinea pig brain

[2] = target: human sigma receptor (Homo sapiens, UniProt Q99720); assay: Human sigma receptor assay; assay type: binding
Method: (§1) The ability of test compounds to displace sigma ligands in vitro was determined by the methods of de Costa et al. (FEBS Lett. 251:53 (1989)) and De Haven-Hudkine et al. (Eur. J. Pharmacol. 227:372 (1992)) having guinea pig as a receptor source. Whereas, the methods of Gamapatju et al. (J. Pharm.&Exp. 289:251 (1999)) were utilized for human sigma receptors.

[3] = target: T2, guinea pig sigma receptor (Cavia porcellus, UniProt Q60492); assay: Guinea pig sigma receptor assay; assay type: binding
T2 construct: having guinea pig as a receptor source; from tissue; host or cells: guinea pig
Method: as §1

[4] = system: Male Wistar rats; assay: MK-801-Induced Psychosis Model; assay type: in vivo, rat; settings: rat, 0.25 mg/kg i.p.; MK-801 0.3 mg/kg i.p.
Text: The non-competitive NMDA receptor antagonist MK-801 induces stereotypies and hyperactivity in rodents (1) by interacting with the NMDA receptor-associated ion channel. Phencyclidine, which also interferes with the NMDA receptor, produces psychotic effects in humans similar in many respects to schizophrenia. […] Therefore the MK-801-induced activity and stereotypies in rats may represent an appropriate animal model to test the potential efficacy of antipsychotic drugs.
Male Wistar rats (Iffa Crédo, St Germain/l'Arbresle, France), weight 250-300 g were housed 2 per cage on a 12 h/12 h light dark cycle (lights on at 7.00 a.m.) at a room temperature of 21±2° C. for a minimum of 5 days before testing. All animals had access to commercial food and tap water ad libitum.
On the day of the experiment, rats were treated with either reference drug vehicle, the reference drugs haloperidol or clozapine the test compound vehicle or test compounds. After administration, the rats were returned to their home cages for 15 minutes. […] The remaining rats treated with placebo received a second injection of vehicle. The standard injection volume was 2.0 ml/kg. After 10 minutes in the home cages, rats were transferred to the test box (Plexiglas, 29×12×12 cm), 5 minutes before the assessment for accomodation. The test box was cleaned with 70% ethanol before each assessment. Stereotypies, defined as wall-contacts with the snout, and locomotion, defined as turn-rounds of 180°, were assessed during 5 minute periods.

[5] = read-out: IC50 Against Human Sigma Receptor
[6] = read-out: IC50 Against Guinea Pig Sigma Receptor

T2 sequence (Q60492 whole entry): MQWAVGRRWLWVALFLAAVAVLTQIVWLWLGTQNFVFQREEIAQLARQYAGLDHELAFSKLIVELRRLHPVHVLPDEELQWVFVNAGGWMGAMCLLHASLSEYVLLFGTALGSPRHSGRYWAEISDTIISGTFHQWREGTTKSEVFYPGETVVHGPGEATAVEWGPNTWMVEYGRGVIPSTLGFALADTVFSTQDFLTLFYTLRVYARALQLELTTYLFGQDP
T1 sequence (Q60492 whole entry): as above
Sequence of human sigma receptor (Q99720 whole entry): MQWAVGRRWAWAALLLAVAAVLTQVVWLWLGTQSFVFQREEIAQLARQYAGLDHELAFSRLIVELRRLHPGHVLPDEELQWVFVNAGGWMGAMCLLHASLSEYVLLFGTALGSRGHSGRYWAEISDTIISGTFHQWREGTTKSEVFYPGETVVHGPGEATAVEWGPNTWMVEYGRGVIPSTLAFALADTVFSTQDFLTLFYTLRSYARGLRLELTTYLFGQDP

Compound	IC50 [1]	% Inhibition [1]	other results
O=C1CCC2(CCN(S(=O)(=O)c3ccccc3)CC2)Nc2ccccc21 [Compound 17, 1′-(Benzenesulfonyl)-3,4-dihydrospiro[5H-1-benzazepine-2(1H)-4′-piperidin]-5-one]	> 1000 nM	<50%	–
Fc1ccc(CN2CCC3(CCCc4ccccc4N3)CC2)cc1 [Compound 43]	–	–	IC50 [2, 5]: < 1000 nM
C=CCN1CCC2(CCC(=O)c3ccccc3N2)CC1 [Compound 26, 1′-(allyl)-3,4-dihydrospiro[5H-1-benzazepine-2(1H)-4′-piperidin]-5-one]	–	>50%	–
1′-(iso-nicotinyl)-3,4-dihydrospiro[5H-1-benzazepine-2(1H)-4′-piperidin]-5-one [Compound 20]	> 1000 nM	<50%	–
O=C1CCC2(CCN(CC(O)c3ccccc3)CC2)Nc2ccccc21 (stereo not shown) [Compound 45, 1′-(2-hydroxy-phenethyl)-3,4-dihydrospiro[5H-1-benzazepine-2(1H)-4′-piperidin]-5-one]	–	–	IC50 [2, 5]: < 100 nM; IC50 [3, 6]: < 10 nM
C=C1c2ccccc2NC12CCN(Cc1ccc(F)cc1)CC2 [Compound 53, 1-Fluorobenzyl-spiro[(3-methylene)-indole-2,4′-piperidine]]	–	–	IC50 [2]: > 1000 nM; IC50 [3]: < 100 nM
NC1CCC2(CCN(Cc3ccc(F)cc3)CC2)Nc2ccccc21 (racemic) [Compound 36, 1′-(4-fluorobenzyl)-3,4-dihydrospiro[5H-1-benzazepine-2(1H)-4′-piperidin]-5-amine]	–	–	IC50 [2, 5]: < 100 nM
O=C1CCC2(CCN(Cc3ccc(OC(F)(F)F)cc3)CC2)Nc2ccccc21 [Compound 18, 1′-(4-Trifluoromethoxybenzyl)-3,4-dihydrospiro[5H-1-benzazepine-2(1H), 4′-piperidin]-5-one]	–	>50%	–
O=C1CCC2(CCN(C(=O)c3ccc4ccccc4c3)CC2)Nc2ccccc21 [Compound 16, 1′-(2-Naphthoyl)-3,4-dihydrospiro[5H-1-benzazepine-2(1H)-4′-piperidin]-5-one]	> 1000 nM	<50%	–
CC(C)CCN1CCC2(CCC(=O)c3ccccc3N2)CC1 [Compound 29, 1′-(3-methylbutane)-3,4-dihydrospiro[5H-1-benzazepine-2(1H)-4′-piperidin]-5-one]	< 100 nM	>50%	–
N#Cc1ccc(CN2CCC3(CCC(=O)c4ccccc4N3)CC2)cc1 [Compound 24, 1′-(4-cyanobenzyl)-3,4-dihydrospiro[5H-1-benzazepine-2(1H), 4′-piperidin]-5-one]	–	>50%	–
O=C1CCC2(CCN(CCC3CCCCC3)CC2)Nc2ccccc21 [Compound 25]	–	>50%	–
O=C(CCCN1CCC(O)(c2ccc(Cl)cc2)CC1)c1ccc(F)cc1 [haloperidol, reference compound]	–	–	MK-801-induced locomotion [4]: significant reduction; MK-801-induced stereotypies [4]: significant reduction
C=C(C)CCN1CCC2(CCC(=O)c3ccccc3N2)CC1 [Compound 23, 1′-(3-methyl-3-butene)-3,4-dihydrospiro[5H-1-benzazepine-2(1H)-4′-piperidin]-5-one]	–	>50%	–
O=C1CCC2(CCN(CC3CO3)CC2)Nc2ccccc21 (stereo not shown) [Compound 28, 1′-(epoxymethyl)-3,4-dihydrospiro[5H-1-benzazepine-2(1H)-4′-piperidin]-5-one]	–	>50%	–
O=C1CCC2(CCN(C(=O)N3CCOCC3)CC2)Nc2ccccc21 [Compound 13, 1′-(4-morpholinecarbonyl)-3,4-dihydrospiro[5H-1-benzazepine-2(1H)-4′-piperidin]-5-one]	> 1000 nM	<50%	–
CC(c1ccc(F)cc1)N1CCC2(CCC(=O)c3ccccc3N2)CC1 (stereo not shown) [Compound 46, 1′-(1-Methyl-4-fluorobenzyl)-3,4-dihydrospiro[5H-1-benzazepine-2(1H)-4′-piperidin]-5-one]	–	–	IC50 [2, 5]: < 100 nM; IC50 [3, 6]: < 10 nM
CC(=O)NC1CCC2(CCN(Cc3ccc(F)cc3)CC2)Nc2ccccc21 (racemic) [Compound 39]	–	–	IC50 [2, 5]: < 1000 nM; IC50 [3, 6]: < 10 nM
O=C1CCC2(CCN(C(=O)c3ccc(Cl)c(Cl)c3)CC2)Nc2ccccc21 [Compound 12, 1′-(3,4-Dichlorobenzoyl)-3,4-dihydrospiro[5H-1-benzazepine-2(1H)-4′-piperidin]-5-one]	> 1000 nM	<50%	–
O=C1C=CC2(CCN(Cc3ccc(F)cc3)CC2)Nc2ccccc21 [Compound 34, 1′-(4-Fluorobenzyl)-spiro[5-1-benzazepine-2(1H)-4′-piperidin]-5-one]	< 100 nM	>50%	IC50 [3, 6]: < 100 nM
CCN(CC)C(=O)N1CCC2(CCC(=O)c3ccccc3N2)CC1 [Compound 15, 1′-(Diethylcarbamyl)-3,4-dihydrospiro[5H-1-benzazepine-2(1H)-4′-piperidin]-5-one]	> 1000 nM	<50%	–
COC(=O)c1ccc(CN2CCC3(CCC(=O)c4ccccc4N3)CC2)cc1 [Compound 22, 1′-(Methyl-(4-methylbenzoate))-3,4-dihydrospiro[5H-1-benzazepine-2(1H), 4′-piperidin]-5-one]	< 1000 nM	>50%	–
CC(C)(C)c1ccc(C(=O)N2CCC3(CCC(=O)c4ccccc4N3)CC2)cc1 [Compound 14, 1′-(4-tert-Butylbenzoyl)-3,4-dihydrospiro[5H-1-benzazepine-2(1H)-4′-piperidin]-5-one]	> 1000 nM	<50%	–
O=C1CCC2(CCN(Cc3ncc[nH]3)CC2)Nc2ccccc21 [Compound 30, 1′-(2-methyl-imidazole)-3,4-dihydrospiro[5H-1-benzazepine-2(1H)-4′-piperidin]-5-one]	< 1000 nM	>50%	–
CC(C)(C)CCN1CCC2(CCC(=O)c3ccccc3N2)CC1 [Compound 27, 1′-(3,3-dimethylbutane)-3,4-dihydrospiro[5H-1-benzazepine-2(1H)-4′-piperidin]-5-one]	–	>50%	–
CC(=O)N1CCC2(CCC(=O)c3ccccc3N2)CC1 [Compound 10, 1′-Acetyl-3,4-dihydrospiro[5H-1-benzazepine-2(1H), 4′-piperidin]-5-one]	–	>50%	–
